Reference: BindingDB's records for doi:10.1111/cbdd.12207 (Nirma University, 2014)

Target: T1, Gag-Pol polyprotein [1148-1435] (Human immunodeficiency virus 1, UniProt P04585)
T1 construct: 1148-1435
Experiment: HIV-1 Integrase Assay
Procedure: HIV-1 integrase inhibitory activity of compounds were determined using strand transferase inhibitory assay.

In order of rising IC50:
1. O=C(NCc1cc2ccccc2s1)c1nc(-c2cccs2)nc(O)c1O [N-(1-benzothiophen-2-ylmethyl)-5,6-dihydroxy-2-(thiophen-2-yl)pyrimidine-4-carboxamide (Compound 12)]  0.01 µM
2. O=C(NCc1ccc(Cl)c(Cl)c1)c1nc(-c2cccs2)nc(O)c1O [N-[(3,4-dichlorophenyl)methyl]-5,6-dihydroxy-2-(thiophen-2-yl)pyrimidine-4-carboxamide (Compound 14)]  0.01 µM
3. O=C(O)C(=O)CC(=O)c1cc(OCc2ccccc2)cc(OCc2ccccc2)c1  0.059 µM
4. O=C(NNC(=O)c1cccc(O)c1O)c1ccccc1O [2,3-dihydroxy-N'-(2-hydroxybenzoyl)benzohydrazide (Compound 17)]  0.5 µM
5. O=C(O)C(=O)CC(=O)c1c[nH]c2ccc(Cl)cc12  0.52 µM
6. O=C(NNCc1ccccc1O)c1ccccc1O [2-hydroxy-N'-[(2-hydroxyphenyl)methyl]benzohydrazide (Compound 4)]  0.7 µM
7. O=C1c2ccccc2C(C2CCCCC2)C(=O)N1O (centres undefined) [4-cyclohexyl-2-hydroxy-4H-isoquinoline-1,3-dione (Compound 3)]  1.35 µM
8. O=C(O)C(=O)CC(=O)c1cn(Cc2ccc(F)cc2)c2ccc(F)cc2c1=O [(2Z)-4-{6-fluoro-1-[(4-fluorophenyl)methyl]-4-oxoquinolin-3-yl}-2-hydroxy-4-oxobut-2-enoic acid (Compound 9)]  2.3 µM
9. O=C1/C(=C\c2cccc(O)c2)C=NN1C(=O)c1ccccc1O [(4Z)-2-(2-hydroxybenzoyl)-4-[(3-hydroxyphenyl)methylidene]pyrazol-3-one (Compound 11)]  7.4 µM
10. O=C(Nc1ncnc2c1ncn2Cc1ccc(F)cc1)c1ccc2cccnc2c1O [N-{9-[(4-fluorophenyl)methyl]purin-6-yl}-8-hydroxyquinoline-7-carboxamide (Compound 20)]  11.2 µM
11. O=C1C(=O)c2ccccc2C(=O)C1=Cc1c(O)c(O)c2ccccc2c1O [2-hydroxy-3-[(3-hydroxy-1,4-dioxonaphthalen-2-yl)methyl]naphthalene-1,4-dione (Compound 10)]  20 µM
12. Cn1c(=O)c(C(=O)O)c(O)c2cc(-c3ccc(F)cc3)ccc21 [6-(4-fluorophenyl)-4-hydroxy-1-methyl-2-oxoquinoline-3-carboxylic acid (Compound 6)]  23 µM
13. COC(=O)c1ccc2cc(CCc3ccc(O)c(O)c3)oc2c1 [methyl 2-[2-(3,4-dihydroxyphenyl)ethyl]-1-benzofuran-6-carboxylate (Compound 18)]  43.8 µM
14. O=C(NO)c1ccc2c(c1)CCN2Cc1ccc(F)cc1F [1-[(2,4-difluorophenyl)methyl]-N-hydroxy-2,3-dihydroindole-5-carboxamide (Compound 1)]  84 µM
15. O=c1oc2ccccc2c(O)c1C1c2ccccc2Oc2c1c(=O)oc1ccccc21 (centres undefined)  122 µM
16. COC(=O)c1ccc(CC(=O)c2cc(C=O)c(O)cc2C)c(C)c1O [methyl 4-[2-(5-formyl-4-hydroxy-2-methylphenyl)-2-oxoethyl]-2-hydroxy-3-methylbenzoate (Compound 5)]  123 µM
17. Oc1ccccc1CNNCC(O)COc1ccccc1 (centres undefined) [2-{[2-(2-hydroxy-3-phenoxypropyl)hydrazin-1-yl]methyl}phenol (Compound 15)]  200 µM
18. C=c1[nH]n(C(=O)c2ccc(Cl)cc2)c(=O)c1=Cc1ccc(O)cc1  293 µM
19. COc1cc2c(cc1OC)C(=O)N1CSCC1C(=O)S2 (centres undefined) [12,13-dimethoxy-5,9-dithia-3-azatricyclo[8.4.0.0 ,⁷]tetradeca-1(14),10,12-triene-2,8-dione (Compound 8)]  331 µM
